Like-named read-outs stand apart in the source and are kept apart here.
Legend:
PDGFRα = PDGFRα (Homo sapiens (Human), UniProt P16234); experiment: PDGFRα kinase enzyme assay (Promega PDGFRα Kinase Enzyme System, ADP-Glo); format: biochemical; conditions: 150 uM ATP
Outline: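 Purified PDGFRα protein (20 ng) reacted with test compound per the Promega kinase system protocol. ADP formed was measured by ADP-Glo luminescence against a standard curve, giving IC50.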

[1] = tested on: Oligodendrocyte progenitor cells (OPCs); experiment: In vitro OPC differentiation assay, GPR17 expression (immunocytochemistry); conditions: 72 hours; for GPR17 Fold Induction (Over Vehicle; 3 μM): 3 μM (10× concentration, final 0.3 μM)
[2] = tested on: Oligodendrocyte progenitor cells (OPCs); experiment: In vitro OPC differentiation assay, MBP expression (immunocytochemistry)
Method: Cortices from postnatal day (P) 1-3 rats were dissected and collected into ice cold Hank's Balanced Salt Solution (HBSS). […] Briefly, the cortical cell suspension was centrifuged and washed with buffer (0.5% BSA in PBS) and labeled with Anti-A2B5 MicroBeads (10 μL beads per 1×10^7 cells) for 15 minutes at 4° C. Following the incubation, cells were washed once with BSA buffer to remove unlabeled beads. A2B^5 positive cells were eluted on the column using the AutoMACS® (Miltenyi, as per manufacturer's protocol using “possel-s” program). Eluted cells were further washed twice with OPC growth media. Cell count was performed using Countess III cell counter (ThermoFisher; AMQAX2000) and cells were plated.
A2B5+ OPCs were plated in poly-d-lysine (PDL) coated T75 flask at a density of ˜3 million cells per flask. […] TrypLE was normalized by adding 10 mL growth media and cells were centrifuged at 1400 rpm for 10 minutes. […] The plates were allowed to sit at room temperature for 15 minutes to ensure proper dispersion of cells in a well. The plates were then transferred to the incubator (37° C.; 5% CO2).
Cells were then incubated for 72 hours at 37° C., 5% CO2 before immunostaining for MBP marker expression.
Following 72 hours of treatment, cells were fixed with 4% paraformaldehyde for 15 minutes then washed three times in DPBS. Prior to staining, cells were blocked for 15 minutes in 10% normal goat serum containing 1% BSA and 0.1% Triton X-100 in DPBS. Primary antibody (MBP @ 1:2000; Abcam AB7349) was applied to cells overnight at 4° C. in incubation solution containing 1% normal goat serum, 1% BSA, and 0.1% Triton X-100 in DPBS.
The number of differentiated MBP+ cells was normalized to the total nuclei count and percent differentiated MBP+ cells were reported.

[3] = tested on: GPR17+ cells (newly differentiated oligodendrocytes); experiment: In vivo OPC differentiation, GPR17+ cells in brain; conditions: Mus musculus, po, 24 h, read-out: GPR17 Fold Induction (Over Vehicle)
Method: The ability of newly constructed compounds to drive OPC differentiation and myelination in vivo was tested. The ability of these compounds to drive OPC differentiation in vivo was tested using GPR17 as an indicator of newly differentiated oligodendrocytes.
Compounds were delivered PO or IP either QD or BID. Mice were dosed once, transiently, or continuously through the treatment period, which ranged from 1-3 days.
Mice were euthanized by isoflurane exposure and transcardially perfused with 14 mL of PBS (Sigma Cat #P4417-50TAB) followed by 22 mL of 3.2% paraformaldehyde in PBS. The brains were removed and postfixed for a minimum of 24 hours in 20 mL of 3.2% paraformaldehyde.
50-micron floating sections were cut using a Leica VT1200S vibratome. Every 24th section, extending through the antero-posterior extent of the brain, was stained. The selected brain sections were washed three times in PBS for 3 minutes each. The floating sections were incubated in the primary antibodies (see Table 10, below) diluted in blocking solution overnight at room temperature on a shaker. […] The next day, the sections were again washed three times in PBS for 3 minutes each and then incubated in the secondary antibodies diluted in blocking solution for 2 hours at room temperature on a shaker. After incubation, the sections were washed three times in PBS for 3 minutes each and mounted on a slide to be imaged using the Olympus Slide Scanner VS200.
The images were analyzed using a custom protocol developed using Visiopharm software to count GPR17+ cells. Cells were considered GPR17+ if they contained an Olig2 positive nucleus, and intense GPR 17 staining that filled their processes. Statistical analysis was done using one-way ANOVA with multiple comparison in GraphPad Prism software.

[4] = 11-point dose response, 10,000 nM to 0.169 nM, BLQ = below limit of quantitation, read-out: IC50 Values on PDGFRα Kinase Inhibition, IC50
[5] = 5 μM (10× concentration, final 0.5 μM), fold change over vehicle
[6] = 72 hours of treatment, fold change over vehicle

PDGFRα, sequence (P16234 24-1089): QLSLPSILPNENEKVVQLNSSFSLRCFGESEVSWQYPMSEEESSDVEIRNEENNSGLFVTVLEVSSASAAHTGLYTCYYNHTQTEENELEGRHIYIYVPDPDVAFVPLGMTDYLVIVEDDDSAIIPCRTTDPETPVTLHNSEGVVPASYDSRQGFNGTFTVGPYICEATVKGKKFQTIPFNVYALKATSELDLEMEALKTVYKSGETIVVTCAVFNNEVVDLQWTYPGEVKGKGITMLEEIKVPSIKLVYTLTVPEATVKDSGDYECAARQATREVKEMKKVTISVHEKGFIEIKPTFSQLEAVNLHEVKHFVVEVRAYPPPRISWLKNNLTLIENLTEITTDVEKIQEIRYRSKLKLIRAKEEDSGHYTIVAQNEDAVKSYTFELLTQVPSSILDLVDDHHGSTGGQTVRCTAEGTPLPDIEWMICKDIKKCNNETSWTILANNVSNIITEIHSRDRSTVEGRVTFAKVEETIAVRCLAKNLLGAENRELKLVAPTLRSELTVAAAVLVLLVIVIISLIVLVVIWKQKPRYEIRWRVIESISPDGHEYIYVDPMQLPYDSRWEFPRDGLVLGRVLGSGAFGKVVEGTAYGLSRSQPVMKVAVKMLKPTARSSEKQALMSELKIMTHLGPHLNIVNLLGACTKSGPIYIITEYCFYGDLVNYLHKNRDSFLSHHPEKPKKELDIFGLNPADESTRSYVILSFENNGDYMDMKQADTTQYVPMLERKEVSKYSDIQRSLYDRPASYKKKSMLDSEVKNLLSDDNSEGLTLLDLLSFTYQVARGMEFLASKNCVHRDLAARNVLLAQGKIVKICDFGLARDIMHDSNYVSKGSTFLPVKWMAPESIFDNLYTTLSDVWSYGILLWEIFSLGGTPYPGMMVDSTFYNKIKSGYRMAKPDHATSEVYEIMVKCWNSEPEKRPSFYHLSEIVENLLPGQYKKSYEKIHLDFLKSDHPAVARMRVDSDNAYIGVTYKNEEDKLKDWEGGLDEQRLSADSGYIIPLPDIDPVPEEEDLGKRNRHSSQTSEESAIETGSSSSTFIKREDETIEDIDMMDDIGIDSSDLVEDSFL

IC50 (PDGFRα; [4]) [nM] | GPR17 Fold Induction (Over Vehicle; 3 μM) ([1]; fold change over vehicle) | GPR17 Fold Induction (Over Vehicle; 5 μM) [1, 5] | MBP Fold Induction (Over vehicle) [2, 6] | IC50 (PDGFRα; 20 ng purified PDGFRα, Poly (Glu4Tyr1) substrate, two hours, 11-point dose response, read-out: IC50 Values on PDGFRα Kinase Inhibition) [nM] | GPR17 Fold Induction (Over Vehicle; 5 μM) ([1]; primary rat OPCs, 5 μM (10x; final 0.5 μM per method), percent GPR17+ cells as fold change over vehicle) | MBP Fold Induction (Over vehicle) ([2]; primary rat OPCs, 72 hours, 3 uM (10x; final 0.3 uM per method), percent MBP+ cells as fold change over vehicle) | Molecule | fold induction at 3 mg/kg [3]
673 | 5.81 | 7.65 | 2.95 |  |  |  | Cn1cc(-c2ccc3c(N4CCCN(c5ncc(Cc6ccccc6)cn5)CC4)cnn3c2)cn1 [Compound 37, 3-[4-(5-benzylpyrimidin-2-yl)-1,4-diazepan-1-yl]-6-(1-methyl-1H-pyrazol-4-yl)pyrazolo[1,5-a]pyridine] | 
1140 | 4.10 |  | 2.93 |  |  |  | Cn1cc(-c2ccc3c(N4CCN(c5ccc(Cc6ccccc6)cc5)CC4)cnn3c2)cn1 [Compound 150, 3-(4-(4-benzylphenyl)piperazin-1-yl)-6-(1-methyl-1H-pyrazol-4-yl)pyrazolo[1,5-a]pyridine] | 
423 | 5.14 | 2.52 | 2.41 |  |  |  | Cn1cc(-c2ccc3c(C4=CCN(c5ncc(Cc6ccccc6)cn5)C4)cnn3c2)cn1 [Compound 51, 3-[1-(5-benzylpyrimidin-2-yl)-2,5-dihydro-1H-pyrrol-3-yl]-6-(1-methyl-1H-pyrazol-4-yl)pyrazolo[1,5-a]pyridine] | 
1410 | 6.37 | 3.98 | 1.97 |  |  |  | Cn1cc(-c2ccc3c(N4CCN(C(=O)OCCC5CCOCC5)CC4)cnn3c2)cn1 [Compound 15, 2-(tetrahydro-2H-pyran-4-yl)ethyl 4-[6-(1-methyl-1H-pyrazol-4-yl)pyrazolo[1,5-a]pyridin-3-yl]piperazine-1-carboxylate] | 
1650 | 4.40 | 3.50 | 1.77 |  |  |  | Cn1cc(-c2ccc3c(N4CCN(C(=O)Cc5ccccc5)CC4)cnn3c2)cn1 [Compound 18, 6-(1-methyl-1H-pyrazol-4-yl)-3-[4-(phenylacetyl)piperazin-1-yl]pyrazolo[1,5-a]pyridine] | 
685 | 7.08 | 5.22 | 1.92 |  |  |  | Cn1cc(-c2ccc3c(N4CCC(c5ncc(Cc6ccccc6)cn5)C4)cnn3c2)cn1 (centres unmarked) [Compound 36, 3-[3-(5-benzylpyrimidin-2-yl)pyrrolidin-1-yl]-6-(1-methyl-1H-pyrazol-4-yl)pyrazolo[1,5-a]pyridine] | 
670 | 5.18 |  | 1.71 |  |  |  | Cn1cc(-c2ccc3c(N4CCN(c5ncc(Cc6ccc(Cl)cc6)cn5)CC4)cnn3c2)cn1 [Compound 65, 3-{4-[5-(4-chlorobenzyl)pyrimidin-2-yl]piperazin-1-yl}-6-(1-methyl-1H-pyrazol-4-yl)pyrazolo[1,5-a]pyridine] | 
786 | 5.16 | 5.12 | 2.00 |  |  |  | C[C@H](OC(=O)N1CCN(c2cnn3cc(-c4cnn(C)c4)ccc23)CC1)c1ccccc1 [Compound 34, (S)-1-phenylethyl 4-(6-(1-methyl-1H-pyrazol-4-yl)pyrazolo[1,5-a]pyridin-3-yl)piperazine-1-carboxylate] | 
> 10000 | 4.57 |  | 4.88 |  |  |  | CN(Cc1ccccc1)S(=O)(=O)N1CCN(c2cnn3cc(-c4cnn(C)c4)ccc23)CC1 [Compound 158, N-benzyl-N-methyl-4-(6-(1-methyl-1H-pyrazol-4-yl)pyrazolo[1,5-a]pyridin-3-yl)piperazine-1-sulfonamide] | 
638 | 4.28 | 3.74 | 1.75 |  |  |  | Cn1cc(-c2cn3ncc(N4CCN(C(=O)OC(C)(C)C)CC4)c3cn2)cn1 [Compound 44, Tert-butyl 4-[6-(1-methyl-1H-pyrazol-4-yl)pyrazolo[1,5-a]pyrazin-3-yl)piperazine-1-carboxylate] | 
3200 | 4.15 |  | 8.70 |  |  |  | C=C(c1ccc(F)cc1)c1cnc(N2CCN(c3cnn4cc(-c5cnn(C)c5)ccc34)CC2)nc1 [Compound 256, 3-(4-(5-(1-(4-fluorophenyl)vinyl)pyrimidin-2-yl)piperazin-1-yl)-6-(1-methyl-1H-pyrazol-4-yl)pyrazolo[1,5-a]pyridine] | 
467 | 9.32 |  | 10.35 |  |  |  | CC(C)(C)OC(=O)N1CCN(c2cnn3cc(-c4cnn(C5CCOCC5)c4)ccc23)CC1 [Compound 235] | 
 |  |  |  | 10.8 | 7.10 | 6.11 | CN(C[C@@H]1COCCO1)S(=O)(=O)Nc1ccc2ccc3ncc(-c4cnn(C)c4)cc3c(=O)c2c1 [MK 2461, reference compound] | 
5280 | 7.61 |  | 4.70 |  |  |  | CC(C)Cc1cnc(N2CCN(c3cnn4cc(-c5cnn(C)c5)ccc34)CC2)nc1 [Compound 189, 3-(4-(5-isobutylpyrimidin-2-yl)piperazin-1-yl)-6-(1-methyl-1H-pyrazol-4-yl)pyrazolo[1,5-a]pyridine] | 
5.27 | 9.66 |  | 25.00 |  |  |  | Cn1cc(-c2ccc3c(N4CCN(c5ncc(C(O)c6ccccc6)cn5)CC4)cnn3c2)cn1 (centres unmarked) [Compound 71, (2-{4-[6-(1-Methyl-1H-pyrazol-4-yl)pyrazolo[1,5-a]pyridin-3-yl]piperazin-1-yl}pyrimidin-5-yl)(phenyl)methanol] | 
7.17 | 13.76 | 7.14 | 2.44 |  |  |  | C[C@@H](OC(=O)N1CCN(c2cnn3cc(-c4cnn(C)c4)ccc23)CC1)c1ccccc1 [Compound 33, (R)-1-phenylethyl 4-(6-(1-methyl-1H-pyrazol-4-yl)pyrazolo[1,5-a]pyridin-3-yl)piperazine-1-carboxylate] | 
 | 7.07 |  | 16.83 |  |  |  | Cn1cc(-c2ccc3c(N4CCN(c5ncc(C(O)Cc6ccccc6)cn5)CC4)cnn3c2)cn1 (centres unmarked) [Compound 167, 1-(2-{4-[6-(1-methyl-1H-pyrazol-4-yl)pyrazolo[1,5-a]pyridin-3-yl]piperazin-1-yl}pyrimidin-5-yl)-2-phenylethanol] | 
79.8 | 10.85 |  |  |  |  |  | Cn1cc(-c2ccc3c(N4CCN(c5ncc(C(CO)c6ccc(F)cc6)cn5)CC4)cnn3c2)cn1 (centres unmarked) [Compound 257, 2-(4-fluorophenyl)-2-(2-(4-(6-(1-methyl-1H-pyrazol-4-yl)pyrazolo[1,5-a]pyridin-3-yl)piperazin-1-yl)pyrimidin-5-yl)ethan-1-ol] | 2.32

Molecule | IC50 (PDGFRα; [4]) [nM] | GPR17 Fold Induction (Over Vehicle; 3 μM) ([1]; fold change over vehicle) | GPR17 Fold Induction (Over Vehicle; 5 μM) [1, 5] | MBP Fold Induction (Over vehicle) [2, 6] | IC50 (PDGFRα; 20 ng purified PDGFRα, Poly (Glu4Tyr1) substrate, two hours, 11-point dose response, read-out: IC50 Values on PDGFRα Kinase Inhibition) [nM] | GPR17 Fold Induction (Over Vehicle; 5 μM) ([1]; primary rat OPCs, 5 μM (10x; final 0.5 μM per method), percent GPR17+ cells as fold change over vehicle) | MBP Fold Induction (Over vehicle) ([2]; primary rat OPCs, 72 hours, 3 uM (10x; final 0.3 uM per method), percent MBP+ cells as fold change over vehicle) | fold induction at 3 mg/kg [3]
3-[4-(5-benzylpyrimidin-2-yl)piperazin-1-yl]-7-(1-methyl-1H-pyrazol-4-yl)imidazo[1,2-b]pyridazine [Compound 52] | 1950 | 9.09 | 5.41 | 2.66 |  |  |  | 
